Reference: ChEMBL document CHEMBL5150041, “Discovery of novel N-(1-benzyl-1H-imidazol-2-yl)amide derivatives as melanocortin 1 receptor agonists” (Bioorg Med Chem Lett, 2022)

Columns and labels:
[1] = target: T1, Melanocyte-stimulating hormone receptor (Homo sapiens, UniProt Q01726); experiment: Agonist activity at human MC1R assessed as increase in alpha-MSH induced cAMP level; assay type: functional
Target sequence in this assay (Q01726 whole entry): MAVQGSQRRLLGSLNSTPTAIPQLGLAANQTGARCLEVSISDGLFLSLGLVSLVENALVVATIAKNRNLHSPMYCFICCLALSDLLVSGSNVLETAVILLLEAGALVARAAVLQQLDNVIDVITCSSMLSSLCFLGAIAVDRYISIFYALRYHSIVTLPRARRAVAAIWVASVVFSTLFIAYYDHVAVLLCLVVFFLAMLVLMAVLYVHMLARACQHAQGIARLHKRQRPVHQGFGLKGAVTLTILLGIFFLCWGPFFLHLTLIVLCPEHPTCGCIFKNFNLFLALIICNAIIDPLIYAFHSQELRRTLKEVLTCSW

[2] = target: T1, Melanocyte-stimulating hormone receptor; experiment: Agonist activity at human MC1R assessed as increase in alpha-MSH induced cAMP level at 10 uM relative to control; assay type: functional
Target sequence in this assay (Q01726 whole entry, looked up): as the sequence (Q01726 whole entry) above

[3] = target: T1, Melanocyte-stimulating hormone receptor; experiment: Intrinsic agonist activity at human MC1R assessed as increase in alpha-MSH induced cAMP level by measuring maximum response relative to control; assay type: functional; settings: filed as agonist
Target sequence in this assay (Q01726 whole entry, looked up): as the sequence (Q01726 whole entry) above

[4] = Metabolic stability in human assessed as intrinsic clearance measured per mg protein; assay type: ADME

Row | EC50 [1] [nM] | Activity [2] [%] | Intrinsic activity [3] [%] | CL [4] [µL/min] | Activity ([2]; filed as agonist) [%] | SMILES
1 | > 10000 | 18 | – | – | – | CC(C)(C)N1C[C@@H](C(=O)Nc2nccn2Cc2ccc(Cl)cc2)[C@H](c2ccc(F)cc2F)C1
2 | > 10000 | 3.7 | – | – | – | CC(C)(C)N1C[C@@H](C(=O)Nc2ncnn2Cc2ccccc2)[C@H](c2ccc(F)cc2F)C1
3 | 318 | – | 101 | 28 | – | Cc1ccc(Cn2ccnc2NC(=O)[C@@H]2CN(C(C)(C)C)C[C@H]2c2ccc(F)cc2F)c(N2CCC(C(=O)O)CC2)c1
4 | 339 | – | 77 | 610 | – | CC(C)(C)N1C[C@@H](C(=O)Nc2nccn2Cc2ccccc2N2CCCCC2)[C@H](c2ccc(F)cc2F)C1.Cl
5 | 386 | – | 80 | 450 | – | CC(C)(C)N1C[C@@H](C(=O)Nc2nccn2Cc2ccccc2N2CCC(C(N)=O)CC2)[C@H](c2ccc(F)cc2F)C1.Cl
6 | – | – | – | – | 53 | CC(C)(C)N1C[C@@H](C(=O)Nc2nc3ccccc3n2Cc2ccccc2)[C@H](c2ccc(F)cc2F)C1
7 | 77 | – | 158 | 25 | – | CC(C)(C)N1C[C@@H](C(=O)Nc2nccn2Cc2ccc(C(F)(F)F)cc2N2CCC(C(=O)O)CC2)[C@H](c2ccc(F)cc2F)C1
8 | 219 | – | 86 | 660 | – | CC(C)(C)N1C[C@@H](C(=O)Nc2nccn2Cc2ccccc2N2CCOCC2)[C@H](c2ccc(F)cc2F)C1.Cl
9 | 1270 | – | 65 | – | – | CC(C)(C)N1C[C@@H](C(=O)Nc2nccn2Cc2ccccc2Cl)[C@H](c2ccc(F)cc2F)C1
10 | 4660 | – | 54 | – | – | CC(C)(C)N1C[C@@H](C(=O)Nc2nccn2Cc2ccccc2)[C@H](c2ccc(F)cc2F)C1
11 | > 10000 | 7.5 | – | – | – | CC(C)(C)N1C[C@@H](C(=O)Nc2nc3ccccc3n2CCc2ccccc2)[C@H](c2ccc(F)cc2F)C1
12 | 527 | – | 79 | 860 | – | CC(C)(C)N1C[C@@H](C(=O)Nc2nccn2Cc2ccccc2-c2ccccc2)[C@H](c2ccc(F)cc2F)C1
13 | > 10000 | 2.8 | – | – | – | CC(C)(C)N1C[C@@H](C(=O)Nc2ccccc2Cc2ccccc2)[C@H](c2ccc(F)cc2F)C1
14 | 1270 | – | 50 | – | – | CC(C)(C)N1C[C@@H](C(=O)Nc2nccn2Cc2cccc(Cl)c2)[C@H](c2ccc(F)cc2F)C1
15 | 460 | – | 104 | < 10 | – | CC(C)(C)N1C[C@@H](C(=O)Nc2nccn2Cc2ccccc2N2CCC(C(=O)O)CC2)[C@H](c2ccc(F)cc2F)C1
16 | > 10000 | 7 | – | – | – | CC(C)(C)N1C[C@@H](C(=O)Nc2nc3ccccc3n2-c2ccccc2)[C@H](c2ccc(F)cc2F)C1
17 | 1980 | – | – | 39 | 64 | CC(C)(C)N1C[C@@H](C(=O)Nc2nccn2Cc2ccccc2N2CCC(CC(=O)O)CC2)[C@H](c2ccc(F)cc2F)C1

Row | SMILES | EC50 [1] [nM] | Activity [2] [%] | Intrinsic activity [3] [%] | CL [4] [µL/min] | Activity ([2]; filed as agonist) [%]
18 | Cn1c(NC(=O)[C@@H]2CN(C(C)(C)C)C[C@H]2c2ccc(F)cc2F)nc2ccccc21 | > 10000 | 2.5 | – | – | –
